Results on 18 compounds are retold here after US20260334439A1, “BCAT2 INHIBITORS” (Agios Pharmaceuticals, Inc., priority 2023, published 2026).

Bounds are passed on as bounds.

The target of experiment [1] is T1, BCAT2 (Homo sapiens, UniProt O15382).
T1 sequence (O15382 28-392): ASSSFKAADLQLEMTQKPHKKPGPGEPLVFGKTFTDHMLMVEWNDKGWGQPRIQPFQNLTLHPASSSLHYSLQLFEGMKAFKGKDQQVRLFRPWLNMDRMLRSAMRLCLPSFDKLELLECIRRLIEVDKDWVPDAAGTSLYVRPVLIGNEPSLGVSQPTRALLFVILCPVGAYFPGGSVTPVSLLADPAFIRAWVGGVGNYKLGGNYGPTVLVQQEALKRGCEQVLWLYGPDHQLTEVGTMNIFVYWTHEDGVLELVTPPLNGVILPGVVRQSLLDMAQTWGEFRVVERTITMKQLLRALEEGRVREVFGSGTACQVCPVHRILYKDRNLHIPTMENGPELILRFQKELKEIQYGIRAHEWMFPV
Kind of experiment: BCAT2 in vitro enzyme inhibition assay (hBCAT2, glutamate dehydrogenase/diaphorase/resazurin coupled fluorescence read). The format is biochemical. To be noted: hBCAT2, 1 h preincubation at 25° C., one hour reaction; average where tested multiple times. In a few lines: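 Coupled GDH/diaphorase/resazurin fluorescence (Ex 540/Em 590) read after 1 h reaction at 25 °C, SDS-stopped; enzyme (0.33 μg/mL in mix) first preincubated 1 h with compound, 10-point 3-fold series from 100 μM final, Tris pH 8.0 buffer with NaCl, BSA; technical duplicates, averaged across tests.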
(Alamar Blue is a resazurin reagent that responds to reducing activity.)

Experiment [2] deals with T1, BCAT2. Kind of experiment: BCAT2 cell inhibition using engineered A549 cells (MUT KO, BCAT1 KO; 13C6-KMV formation by LC-MS/MS). The arrangement: expressed endogenous BCAT2; endogenous in cells; host or cells: A549 cells, MUT knockout and BCAT1 knockout. The format is cell-based. Put shortly: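 Medium 13C6-KMV formation is read by LC-MS/MS after PFBHA derivatization with d8-KMV internal standard. Cells are CRISPR MUT/BCAT1 double-knockout A549 expressing endogenous BCAT2, given compound 15 min before labelled isoleucine (800 uM, added 1:1) for 24 h. CTG viability run in parallel; replicates averaged.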

The term IC50 denotes the concentration that gives 50% inhibition. As for `O=C(N[C@H]1CCC[C@@H](n2c(-c3ccccc3F)nc3cnc(-c4nc[nH]n4)cc32)[C@@H]1O)c1cc(F)ccc1F` [Example 120, 2,5-difluoro-N-((1S,2R,3R)-3-(2-(2-fluorophenyl)-6-(1H-1,2,4-triazol-3-yl)-1H-imidazo[4,5-c]pyridin-1-yl)-2-hydroxycyclohexyl)benzamide], the IC50 on BCAT2 [1] and at BCAT2 [2] was less than 0.1 µM in each case.
As to `O=C1c2cc(F)ccc2CN1[C@H]1CCC[C@@H](n2c(-c3c(F)cccc3OC(F)F)nc3ccc(-c4nc[nH]n4)cc32)[C@@H]1O` [compound 240], the IC50 against BCAT2 [1] is less than 0.1 µM; on BCAT2 [2], 0.1 to 0.5 µM.
Regarding `O=C(N[C@H]1CCC[C@@H](n2c(-c3ccccc3F)nc3cnc(-c4nc[nH]n4)cc32)C1)c1cc(F)ccn1` [Example 14, 4-fluoro-N-((1S,3R)-3-(2-(2-fluorophenyl)-6-(1H-1,2,4-triazol-3-yl)-1H-imidazo[4,5-c]pyridin-1-yl)cyclohexyl)picolinamide], the IC50 against BCAT2 [1] and on BCAT2 [2] was less than 0.1 µM in each case.
`O=C(N[C@H]1CCC[C@@H](n2c(-c3ccccc3F)nc3cnc(-c4nc[nH]n4)cc32)C1)c1ncccc1Cl` [Example 10, 3-chloro-N-((1S,3R)-3-(2-(2-fluorophenyl)-6-(1H-1,2,4-triazol-3-yl)-1H-imidazo[4,5-c]pyridin-1-yl)cyclohexyl)picolinamide]: the IC50 against BCAT2 [1] is less than 0.1 µM; at BCAT2 [2], 0.5 to 1 µM.
For `N#Cc1ccccc1-c1nc2cnc(-c3nc[nH]n3)cc2n1[C@@H]1CCC[C@H](N2Cc3ccc(F)cc3C2=O)C1` [Example 171, 2-(1-((1R,3S)-3-(6-fluoro-1-oxoisoindolin-2-yl)cyclohexyl)-6-(1H-1,2,4-triazol-3-yl)-1H-imidazo[4,5-c]pyridin-2-yl)benzonitrile], the IC50 against BCAT2 [1] and on BCAT2 [2] was less than 0.1 µM throughout.
Consider `CO[C@H]1C[C@H](NC(=O)c2cc(Cl)ccn2)C[C@H](n2c(-c3ccccc3F)nc3cnc(-c4nc[nH]n4)cc32)C1` [Example 116, 4-chloro-N-((1R,3S,5S)-3-(2-(2-fluorophenyl)-6-(1H-1,2,4-triazol-3-yl)-1H-imidazo[4,5-c]pyridin-1-yl)-5-methoxycyclohexyl)picolinamide], for which the IC50 against BCAT2 [1] and on BCAT2 [2] was less than 0.1 µM each time.
In the case of `O=C(N[C@H]1CCC[C@@H](n2c(-c3ccccc3F)nc3cnc(-c4nc[nH]n4)cc32)C1)c1cc(Cl)ccc1O` [Example 53, 5-chloro-N-((1S,3R)-3-(2-(2-fluorophenyl)-6-(1H-1,2,4-triazol-3-yl)-1H-imidazo[4,5-c]pyridin-1-yl)cyclohexyl)-2-hydroxybenzamide], the IC50 against BCAT2 [1] and at BCAT2 [2] was less than 0.1 µM in each case.
For `COCCOc1ccc(Cl)cc1C(=O)N[C@H]1CCC[C@@H](n2c(-c3ccccc3F)nc3cnc(-n4nccn4)cc32)C1` [Example 72, 5-chloro-N-((1S,3R)-3-(2-(2-fluorophenyl)-6-(2H-1,2,3-triazol-2-yl)-1H-imidazo[4,5-c]pyridin-1-yl)cyclohexyl)-2-(2-methoxyethoxy)benzamide], the half-inhibitory concentration (IC50) against BCAT2 [1] and against BCAT2 [2] was less than 0.1 µM each time.
On to `O=C(N[C@H]1CCC[C@@H](n2c(-c3ccccc3F)nc3cnc(-c4nc[nH]n4)cc32)C1)c1ccccc1Cl` [Example 3, 2-chloro-N-((1S,3R)-3-(2-(2-fluorophenyl)-6-(1H-1,2,4-triazol-3-yl)-1H-imidazo[4,5-c]pyridin-1-yl)cyclohexyl)benzamide], for which the results for the IC50 against BCAT2 [1] and on BCAT2 [2] were less than 0.1 µM and 0.1 to 0.5 µM, respectively.
On the same counts, the results for `O=C1c2ccccc2CN1[C@H]1CCC[C@@H](n2c(-c3ccccc3F)nc3cnc(-c4nc[nH]n4)cc32)C1` [Example 174, 2-((1S,3R)-3-(2-(2-fluorophenyl)-6-(1H-1,2,4-triazol-3-yl)-1H-imidazo[4,5-c]pyridin-1-yl)cyclohexyl)isoindolin-1-one] are less than 0.1 µM and less than 0.1 µM.
In the case of `O=C(N[C@H]1CCC[C@@H](n2c(-c3ccccc3F)nc3cnc(-c4nc[nH]n4)cc32)C1)c1cc(Cl)ccc1OC(F)(F)F` [Example 4, 5-chloro-N-((1S,3R)-3-(2-(2-fluorophenyl)-6-(1H-1,2,4-triazol-3-yl)-1H-imidazo[4,5-c]pyridin-1-yl)cyclohexyl)-2-(trifluoromethoxy)benzamide], the IC50 was less than 0.1 µM against BCAT2 [1] and 0.5 to 1 µM against BCAT2 [2].
Take `COc1cccc(F)c1C(=O)N[C@H]1CCC[C@@H](n2c(-c3ccccc3F)nc3cnc(-c4nc[nH]n4)cc32)C1` [Example 2, 2-fluoro-N-((1S,3R)-3-(2-(2-fluorophenyl)-6-(1H-1,2,4-triazol-3-yl)-1H-imidazo[4,5-c]pyridin-1-yl)cyclohexyl)-6-methoxybenzamide]: the IC50 on BCAT2 [1] was less than 0.1 µM; on BCAT2 [2] (read-out: BCAT2 Cell Inhibition (IC50), engineered A549 cells, 24 hours, 13C6-KMV in media, average where tested multiple times), greater than 1 µM.
Regarding `O=C(N[C@H]1CCC[C@@H](n2c(-c3ccccc3OCCO)nc3cnc(-c4nc[nH]n4)cc32)C1)c1cc(F)ccc1F` [Example 85, 2,5-difluoro-N-((1S,3R)-3-(2-(2-(2-hydroxyethoxy)phenyl)-6-(1H-1,2,4-triazol-3-yl)-1H-imidazo[4,5-c]pyridin-1-yl)cyclohexyl)benzamide], the values for the IC50 against BCAT2 [1] and against BCAT2 [2] were less than 0.1 µM and 0.1 to 0.5 µM, respectively.
As for `CC(C)Cc1nc2cnc(-c3nc[nH]n3)cc2n1[C@@H]1CCC[C@H](NC(=O)c2cc(Cl)ccc2OCCO)C1` [Example 78, 5-chloro-2-(2-hydroxyethoxy)-N-((1S,3R)-3-(2-isobutyl-6-(1H-1,2,4-triazol-3-yl)-1H-imidazo[4,5-c]pyridin-1-yl)cyclohexyl)benzamide], the IC50 against BCAT2 [1] was less than 0.1 µM; against BCAT2 [2], 0.1 to 0.5 µM.
On the same counts, the results for `O=C(N[C@H]1CCC[C@@H](n2c(-c3ccccc3F)nc3cnc(-c4nc[nH]n4)cc32)C1)c1ccc(F)cn1` [Example 19, 5-fluoro-N-((1S,3R)-3-(2-(2-fluorophenyl)-6-(1H-1,2,4-triazol-3-yl)-1H-imidazo[4,5-c]pyridin-1-yl)cyclohexyl)picolinamide] are less than 0.1 µM and 0.1 to 0.5 µM.
For the compound `CN1C[C@H](NC(=O)c2cc(Cl)ccn2)C[C@H](n2c(-c3ccccc3OC(F)F)nc3cnc(-c4nc[nH]n4)cc32)C1` [compound 141], the IC50 on BCAT2 [1] and at BCAT2 [2] was less than 0.1 µM in each case.
With `Cc1coc(-c2cc3c(cn2)nc(-c2ccccc2C#N)n3[C@@H]2CCC[C@H](NC(=O)c3cc(F)ccc3F)C2)n1` [Example 93, N-((1S,3R)-3-(2-(2-cyanophenyl)-6-(4-methyloxazol-2-yl)-1H-imidazo[4,5-c]pyridin-1-yl)cyclohexyl)-2,5-difluorobenzamide], the half-maximal inhibitory concentration (IC50) is less than 0.1 µM against BCAT2 [1] and 0.1 to 0.5 µM at BCAT2 [2].
Turning to `O=C(N[C@H]1CCC[C@@H](n2c(-c3ccccc3F)nc3cnc(-c4nc[nH]n4)cc32)C1)c1cc(C(F)F)ccn1` [compound 100], the IC50 against BCAT2 [1] and at BCAT2 [2] was less than 0.1 µM throughout.
